“Also recorded” adds a separate entry of the source.
Legend:
[1] = system: RIN-m cells; experiment: Protection of RIN-m beta cells against H2O2 toxicity (MTT); assay type: cell-based, rat; details: H2O2 150 μM
Experimental: Two insulin-secreting beta cell lines, rat insulinoma (INS-1E) and RIN-m cells, were used to examine the protective effect of corrole 1C-Fe. The cells were cultured at 37° C., in a humid 5% CO2, 95% air environment in regular RPMI-1640 medium (Invitrogen) supplemented with 5% fetal calf serum (FCS).
After 2 days of culture, RIN-m cells (5×10^4 cells/well in 96-well plates) were treated with corrole 1C-Fe (1-50 μM) before addition of 35 μM of H2O2. Cell viability was evaluated by a colorimetric assay for mitochondrial function estimation using the MTT test as previously described (Gassen et al., 1998) and expressed as percentage of control.
RIN-m cells were grown as described in Example 5. After 3 days of culture, RIN-m cells (2.5×10^4 cells/well in 96-well plates) were treated with corroles 1C-Fe or 5C-Fe or porphyrin 1P-Fe (1 and 20 μM), added 30 min prior to treatment with 35 μM H2O2 and further incubated for 24 h. Cell injury was evaluated by MTT test. […] […].
Protective effect of iron(III) corrole complexes against H2O2-induced toxicity (150 μM) was compared to that of manganese(III) corroles and related porphyrin. […].

[2] = Catalytic decomposition of peroxynitrite (PN), stopped-flow kinetics (Table 1); assay type: biochemical
Experimental: (§1) SOD activity (enzyme-like catalytic decomposition of superoxide anion radical) of the corroles 1C-Fe, 6C-Fe, 1C-Mn, 1C-Cu, 2C-Mn and 3C-Mn was examined via the cytochrome C assay. The catalytic rate constants for decomposition of peroxynitrite (PN) by the newly prepared iron corrole 6C-Fe and manganese corrole 3C-Mn were determined via stopped-flow kinetics as previously described for corroles 1C-Fe, 1C-Mn, and 2C-Mn (Mahammed and Gross, 2006; Gershman et al., 2007). These tests are performed in order to estimate how electronic and structural variables affect reactivity, which is a crucial factor for design of new complexes.

[3] = system: SH-SY5Y cells; assay type: cell-based; details: up to 50 μM; data not shown
[4] = system: SH-SY5Y cells; experiment: Neuroprotection/neurorescue against SIN-1-induced cell death in SH-SY5Y cells; assay type: cell-based, human
Experimental: SH-SY5Y cells were cultured in DMEM-Eagle/F-12(HAM) (1:1) containing 10% FCS. Cells were resuspended in medium containing 2% FCS, seeded in microtiter plates (96 wells) and allowed to attach for 24 h before initiation of treatment. […]

[5] = system: cleaved caspase-3; experiment: Cleaved caspase-3 level in 6-OHDA-treated SH-SY5Y cells, immunofluorescence; assay type: cell-based, human; details: 20 μM, 30 min before 6-OHDA (40 μM), 24 h
Experimental: (§2) SH-SY5Y cells were pretreated with or without corroles 1C-Fe, 2C-Mn and 3C-Mn and porphyrins 1P-Fe and 2P-Mn (20 μM), 30 min before exposure to 6-OHDA (40 μM) for a subsequent 24 h period. Cell viability was evaluated by MTT test and cell death was assessed using the apoptotic cell death detection ELISA kit. For neurorescue, SH-SY5Y cells were first exposed to 40 μM 6-OHDA for 0.5. 1, 1.5 and 3 h, followed by the addition of the compounds 1C-Fe, 2C-Mn and 3C-Mn (20 μM) and incubated for further 24 h. Growth-associated protein (GAP-43) was detected by fluorescence microscopy using a specific primary antibody. Apoptotic nuclei were determined by terminal deoxynucleotidyl transferase-mediated UTP-digoxigenin nick end labeling analysis. 4′,6-Diamidino-2-phenylnidole (DAPI) staining was applied for nuclear labeling. […]
Since 6-OHDA is also known to induce apoptosis in various cell types, including SH-SY5Y (von Coelln et al. 2001; Nie et al. 2002; Shimizu et al. 2002; Jordan et al. 2004), we further tested effect of corroles on the levels of the apoptotic marker, cleaved caspase-3, a major executer of the mitochondrial intrinsic pathway of apoptosis.

[6] = system: nitrotyrosine (Ntyr); experiment: SIN-1-induced cellular protein nitration, nitrotyrosine immunofluorescence in SH-SY5Y cells; assay type: cell-based, human; details: 20 μM corrole, SIN-1 700 μM, 24 h
Experimental: To determine the effect of the corroles on SIN-1-induced cellular protein nitration, SH-SY5Y neuroblastoma cells were treated with SIN-1 (700 μM) in the absence or presence of 20 μM of the corroles 1C-Fe, 2C-Mn, and 3C-Mn. Protein nitration was detected by immunofluorescence analysis using a monoclonal antibody against nitrotyrosine (Ntyr), a biological marker of peroxynitrite.

[7] = SOD activity (catalytic decomposition of superoxide anion radical), cytochrome C assay; assay type: biochemical
Experimental: as §1

[8] = Peroxynitrite decomposition rates by manganese corroles (Example 2); assay type: biochemical; details: 385 μM peroxynitrite, pH 7.4, 25° C., absorbance at 302 nm; Table 2
Experimental: The investigations were performed by examining the decay of 385 μM peroxynitrite at pH 7.4 and 25° C. in the presence and absence of various amounts of Mn corrole catalysts 2C-Mn, 2C′-Mn, 2C″-Mn, 3C-Mn and 4C-Mn. The differences between 2C-Mn, 2C′-Mn, and 2C″-Mn is in the identity of the 10-aryl group, which is C6F5, para-anisyl, and phenyl, respectively. The results (one example using 4C-Mn is shown in FIG. 1) were obtained by monitoring changes in absorbance at 302 nm, the λmax of peroxynitrite. The catalytic performances of five of the above compounds were tested; and the thus elucidated kcat values are presented in Table 2. Importantly, in sharp contrast with the corroles, none of the structurally similar manganese (III) porphyrin complexes affected the decomposition of peroxynitrite by any extent (not shown).

[9] = system: SH-SY5Y cells; assay type: cell-based; details: 20 μM
Experimental: SH-SY5Y cells were cultured in DMEM-Eagle/F-12(HAM) (1:1) containing 10% FCS. Cells were resuspended in medium containing 2% FCS, seeded in microtiter plates (96 wells) and allowed to attach for 24 h. To examine the neuroprotective effect, cells were pretreated for 30 min with corroles 1C-Fe and 5C-Fe (1-20 μM), and were then exposed to 6-OHDA (60 μM) for further 24 h. For neurorescue assessment, SH-SY5Y cells were first treated with 6-OHDA (60 μM) for 0.5 h, 1.5 h, 3 h and 6 h followed by the addition of compounds 1C-Fe and 5C-Fe (10 μM) for further 24 h.
as §2

[10] = Rescuing DMSO from damage attributed to the hydroxyl radical (Fenton reaction); assay type: biochemical; details: for Yield (%) or amount of product (Formaldehyde): substrate DMSO
Excerpt: Corrole complexes were examined with respect to their efficiency of rescuing DMSO from damage attributed to the hydroxyl radical, formed via the Fenton reaction that also involves superoxide anion radical and hydrogen […]. It also mimics reaction occurring in biological systems that are exposed to metal toxicity, the situation that occurs in diseases caused by brain iron accumulation.

[11] = system: RIN-m cells; experiment: Protection of RIN-m cells against SIN-1 toxicity (MTT); assay type: cell-based, rat; details: 0.1-20 μM, 30 min before SIN-1 (800 μM), 24 h
Experimental: INS-1E cells or RIN-m cells were cultured in RPMI with low serum content (2% FCS), placed in microtiter plates (96 wells) at a density of 2.5×10^4 cells/well and allowed to attach for 24 h before treatment. Corroles 1C-Fe and 5C-Fe (10 μM) were added 30 min prior to insult with the nitric oxide donor SIN-1 (500 or 600 μM) for a subsequent 24 h period. Cell viability was evaluated by a colorimetric assay for mitochondrial function using 3-(4,5-dimethylthiazol-2-yl)-2,5-diphenyltetrazolium bromide (MTT test), and expressed as percentage of untreated control. Values higher than 100% reflect increased mitochondrial activity induced by the drug. The results represent the mean±SEM of three independent experiments performed under the same conditions.
Insulin-secreting RIN-m cells were incubated in RPMI with low serum content (2% FCS) and placed in microtiter plates (96 wells) at a density of 2.5×10^4 cells/well and allowed to attach for 24 h before treatment. Cells were treated with corroles 1C-Fe, 1C-Mn or 2C-Mn or porphyrins 1P-Fe or 2P-Mn, in various concentrations (0.1-20 μM), for 30 min prior to insult with SIN-1 (800 μM) for a subsequent 24 h period. Cell viability was evaluated by MTT test and expressed as percentage of untreated control.

[12] = 30 min before 6-OHDA (40 μM), 24 h
[13] = CuSO4/ascorbate, no additive 44 μM
[14] = CuSO4/glutathione, no additive 11 μM

C[n+]1ccc(C2=C3C=CC4=[N+]3[Mn-]35[n]6c2ccc6C(c2c(F)c(F)c(F)c(F)c2F)=C2C=CC(=[N+]23)C(c2cc[n+](C)cc2)=c2ccc([n]25)=C4c2c(F)c(F)c(F)c(F)c2F)cc1.[I-].[I-] (centres unmarked) [2P-Mn, 5,15-bis(N-methyl-4-pyridilium)-10,20-bis-(pentafluoro-phenyl)porphyrinato manganese(III) diiodide salt, reference compound]
cytoprotective effect against H2O2-induced toxicity [1]: totally inefficient; also recorded: inefficiency

C[n+]1ccccc1C1=C2C=CC3=[N+]2[Mn-]24[n]5c1ccc5-c1ccc([n]12)C(c1cccc[n+]1C)=c1ccc([n]14)=C3c1cccc[n+]1C (centres unmarked) [3C-Mn, 5,10,15-tris(N-methyl-2-pyridilium)corrolato manganese(III)]
kcat, catalytic rate constant for decomposition of PN [2]: 25000 M⁻¹ s⁻¹ | preventing H2O2-mediated cytotoxicity [3]: not effective | cytoprotection against different SIN-1 concentrations ([4]; 25 μM corrole, FIG. 12C): protect cells against different SIN-1 concentrations | protection against SIN-1 (MTT reduction analysis and ELISA assay) ([4]; 30 min before SIN-1, 24 h (Example 12)): protect, in a dose-dependent manner; also recorded: more effective not only than 2C-Mn | 6-OHDA-induced increase of cleaved caspase-3 [5]: totally | nitrotyrosine (Ntyr) staining, SIN-1-induced [6]: totally abolished | IC50 [7]: 3.27 µM | kcat, peroxynitrite decomposition rate [8]: 25000 M⁻¹ s⁻¹ | protection against 6-OHDA compared with porphyrins 1P-Fe and 2P-Mn ([9]; 6-OHDA 40 μM, immunofluorescence): remarkable superiority over the porphyrins | 6-OHDA-induced cytotoxicity (MTT, cell death ELISA) [9, 12]: significantly attenuated 6-OHDA-induced cytotoxicity | cell mortality, morphology and apoptotic nuclei (GAP-43 immunofluorescence, TUNEL, DAPI) [9, 12]: significantly attenuated 6-OHDA-induced cell mortality, improved cell morphology and reduced the number of apoptotic nuclei | Yield (%) or amount of product (Formaldehyde) [10, 13]: 0 µM | Yield (%) or amount of product (Formaldehyde) [10, 14]: 0 µM | preventing oxidative damage / protection against metal-induced oxidation of substrates ([10]; summary of Table 3): protect better than corrole 1C-Mn

C[n+]1ccc(C2=C3C=CC4=[N+]3[Mn-]35[n]6c2ccc6-c2ccc([n]23)C(c2cc[n+](C)cc2)=c2ccc([n]25)=C4c2ccccc2)cc1 (centres unmarked) [2C″-Mn]
kcat, peroxynitrite decomposition rate [8]: 81000 M⁻¹ s⁻¹

C[n+]1ccccc1C1=C2C=CC3=[N+]2[Mn-]24[n]5c1ccc5-c1ccc([n]12)C(c1cccc[n+]1C)=c1ccc([n]14)=C3c1c(F)c(F)c(F)c(F)c1F (centres unmarked) [4C-Mn, 5,15-bis(N-methyl-2-pyridilium) 10-pentafluorophenyl corrolato manganese(III)]
kcat, peroxynitrite decomposition rate [8]: 160000 M⁻¹ s⁻¹

O=S(=O)(O)c1cc2[n]3c1C(c1c(F)c(F)c(F)c(F)c1F)=C1C=CC4=[N+]1[Mn-]31[n]3c(cc(S(=O)(=O)O)c3-2)C(c2c(F)c(F)c(F)c(F)c2F)=c2ccc([n]21)=C4c1c(F)c(F)c(F)c(F)c1F (centres unmarked) [1C-Mn, 2,17-bis(sulfonato)-5,10,15-tris(pentafluorophenyl)-corrolato manganese(III)]
kcat, catalytic rate constant for decomposition of PN [2]: 40000 M⁻¹ s⁻¹ | IC50 [7]: 5.9 µM | cytoprotective effect against H2O2-induced toxicity [1]: totally inefficient; also recorded: inefficiency | Yield (%) or amount of product (Formaldehyde) [10, 13]: 20 µM | Yield (%) or amount of product (Formaldehyde) [10, 14]: 7 µM | protective effect against SIN-1 induced toxicity (MTT), comparative [11]: ineffective

COc1c(F)c(F)c(C2=C3C=CC4=[N+]3[Fe-]35[n]6c(cc(S(=O)(=O)O)c62)-c2c(S(=O)(=O)O)cc([n]23)C(c2c(F)c(F)c(OC)c(F)c2F)=c2ccc([n]25)=C4c2c(F)c(F)c(OC)c(F)c2F)c(F)c1F (centres unmarked) [6C-Fe, 2,17-bis-sulfonato-5,10,15-tris(p-methoxy-tetra-fluorophenyl)iron(III) corrole]
IC50 [7]: 1.18 µM

O=S(=O)(O)c1cc2[n]3c1C(c1c(F)c(F)c(F)c(F)c1F)=C1C=CC4=[N+]1[Cu-]31[n]3c(cc(S(=O)(=O)O)c3-2)C(c2c(F)c(F)c(F)c(F)c2F)=c2ccc([n]21)=C4c1c(F)c(F)c(F)c(F)c1F (centres unmarked) [1C-Cu, 2,17-bis(sulfonato)-5,10,15-tris(pentafluorophenyl)-corrolato copper(III)]
IC50 [7]: 12 µM

COc1ccc(C2=c3ccc4[n]3[Mn-]35[n]6c(ccc6-c6ccc([n]63)C=4c3cc[n+](C)cc3)C(c3cc[n+](C)cc3)=C3C=CC2=[N+]35)cc1 (centres unmarked) [2C′-Mn]
kcat, peroxynitrite decomposition rate [8]: 77000 M⁻¹ s⁻¹
